Test system: mRNA expression in peripheral blood of individuals with DMD
Test: Whole-blood gene expression microarray: DMD administered deflazacort vs DMD administered prednisone
Format: in vivo, human
Settings: deflazacort vs. prednisone
Procedure: Fifteen ml of blood was collected from each individual into 6 PAXgene® Vacutainer® tubes (PreAnalytiX, Germany) by antecubital fossa venipuncture. PAXgene® tubes contain a proprietary reagent that immediately stabilizes RNA, thus reducing RNA degradation and minimizing gene expression changes following phlebotomy. The tubes were then inverted 20 times, then remained undisturbed for 2 h at room temperature (about 19° C. to about 22° C.), and then stored at -70° C. until processed. Total RNA was isolated using the Paxgene® blood RNA kit (PreAnalytiX, Germany) according to the manufacturers instructions. The RNA isolated is from all cells in whole blood. Typical yields of total RNA isolated from about 7.5 ml of human whole blood were between 10 μg RNA and 40 μg RNA. RNA quality and purity was analyzed by spectrophotometry using the Nanodrop ND-1000, and RNA integrity was analyzed using the Agilent 2100 Bioanalyzer. […] Sample labeling, hybridization to chips, and image scanning were performed using standard Affymetrix protocols. For each whole blood sample from control individuals and individuals with DMD, total RNA was labeled using the One-Cycle Target Labeling protocol and hybridized to the arrays. […] Double-stranded cDNA synthesis, biotin-labeled cRNA synthesis, and cRNA fragmentation were performed according to the Affymetrix GeneChip Eukaryotic Expression Analysis protocol. The labeled, fragmented cRNA (15 μg) was hybridized at 45° C. overnight. After hybridization, the array was washed and stained. The arrays were scanned with an argon-ion laser at λ=570 nm, with a resolution of 3 μm/pixel (Affymetrix, Inc.). After scanning the array, the raw probe level values for each probe were saved in Affymetrix.cel files. […] Statistical analyses, including t-test analyses, unsupervised hierarchical clustering, and principal component analyses were conducted using Genespring 7.2 software ([…]® 7, Silicon Genetics, Redwood City Calif.). […] Corrections for multiple comparisons used a Benjamini-Hochberg False Discovery Rate (FDR) of 0.05, disclosed in Tang et al., J Cereb Blood Flow Metab 26 (2006) 1089, which is expressly incorporated by reference herein in its entirety. […] Sample processing and array hybridization, probe-level data analysis, and statistical analysis were identical to Example 1.

CC(=O)OCC(=O)[C@@]12N=C(C)O[C@@H]1C[C@H]1[C@@H]3CCC4=CC(=O)C=C[C@]4(C)[C@H]3[C@@H](O)C[C@@]12C [deflazacort]
p-value (AV700030, Nucleic Acid No. 2063): 0.0254
p-value (AV722693, Nucleic Acid No. 1994): 0.000689
p-value (AW070431, Nucleic Acid No. 2113): 0.0198
p-value (t-test, deflazacort vs. prednisone) (AW081561, Nucleic Acid No. 2012): 0.0484
p-value (AW135013, Nucleic Acid No. 2109): 0.0166
p-value (t-test, deflazacort vs. prednisone) (AW504458, Nucleic Acid No. 2032): 0.0109
p-value (t-test, deflazacort vs prednisone) (AW590838, Nucleic Acid No. 2082): 0.0481
p-value (t-test, deflazacort vs. prednisone) (AW978350, Nucleic Acid No. 2027): 0.0388
p-value (BC001152, Nucleic Acid No. 2025): 0.0219
p-value (t-test, deflazacort vs. prednisone) (BC003542, Nucleic Acid No. 2048): 0.00709
p-value (BC006230, Nucleic Acid No. 2123): 0.0131
p-value (BC006454, Nucleic Acid No. 1650): 0.0101
p-value (t-test, deflazacort vs. prednisone) (BC012090, Nucleic Acid No. 2043): 0.0289
p-value (BC017896, Nucleic Acid No. 487): 0.0133
p-value (t-test, deflazacort vs. prednisone) (BC025237, Nucleic Acid No. 2047): 0.0274
p-value (t-test, deflazacort vs. prednisone) (BC039454, Nucleic Acid No. 2011): 0.0311
p-value (BC042832, Nucleic Acid No. 2103): 0.0214
p-value (t-test, deflazacort vs prednisone) (BC043187, Nucleic Acid No. 2073): 0.0446
p-value (BE207758, Nucleic Acid No. 1913): 0.00136
p-value (BE348688, Nucleic Acid No. 1904): 0.0249
p-value (BE439987, Nucleic Acid No. 1711): 0.0106
p-value (BE465380, Nucleic Acid No. 1911): 0.0346
p-value (BE550881, Nucleic Acid No. 2102): 0.0423
p-value (t-test, deflazacort vs. prednisone) (BE563442, Nucleic Acid No. 2062): 0.00559
p-value (BE727883, Nucleic Acid No. 2120): 0.0383
p-value (t-test, deflazacort vs. prednisone) (BE880245, Nucleic Acid No. 2033): 0.00733
p-value (t-test, deflazacort vs prednisone) (BE964989, Nucleic Acid No. 2085): 0.0484
p-value (t-test, deflazacort vs. prednisone) (BF338947, Nucleic Acid No. 2056): 0.0148
p-value (BF477544, Nucleic Acid No. 1895): 0.0499
p-value (t-test, deflazacort vs prednisone) (BF514079, Nucleic Acid No. 1363): 0.0432
p-value (BF575213, Nucleic Acid No. 2122): 0.00608
p-value (t-test, deflazacort vs. prednisone) (BF694956, Nucleic Acid No. 2041): 0.0262
p-value (t-test, deflazacort vs prednisone) (BG029530, Nucleic Acid No. 2074): 0.000753
p-value (t-test, deflazacort vs prednisone) (BG249565, Nucleic Acid No. 2087): 0.00518
p-value (D87291, Nucleic Acid No. 2077): 0.0322
p-value (H12280, Nucleic Acid No. 2098): 0.038
p-value (L18865, Nucleic Acid No. 2114): 0.034
p-value (t-test, deflazacort vs. prednisone) (M15330, Nucleic Acid No. 2060): 0.0137
p-value (t-test, deflazacort vs prednisone) (M35999, Nucleic Acid No. 2071): 0.014
p-value (t-test, deflazacort vs. prednisone) (M60626, Nucleic Acid No. 2020): 0.0333
p-value (N36408, Nucleic Acid No. 2019): 0.0384
p-value (N59653, Nucleic Acid No. 1900): 0.044
p-value (t-test, deflazacort vs prednisone) (N66633, Nucleic Acid No. 2090): 0.0434
p-value (t-test, deflazacort vs. prednisone) (NM_000404, Nucleic Acid No. 2029): 0.000522
p-value (t-test, deflazacort vs prednisone) (NM_000419, Nucleic Acid No. 2070): 0.0421
p-value (NM_000484, Nucleic Acid No. 1261): 0.00856
p-value (NM_000565, Nucleic Acid No. 2064): 0.0489
p-value (t-test, deflazacort vs. prednisone) (NM_000576, Nucleic Acid No. 2059): 0.00127
p-value (NM_001109, Nucleic Acid No. 1899): 0.0468
p-value (NM_001154, Nucleic Acid No. 1902): 0.0116
p-value (t-test, deflazacort vs. prednisone) (NM_001456, Nucleic Acid No. 2015): 0.0172
p-value (t-test, deflazacort vs. prednisone) (NM_001553, Nucleic Acid No. 2057): 0.0297
p-value (t-test, deflazacort vs. prednisone) (NM_001557, Nucleic Acid No. 2065): 0.0421
p-value (NM_001637, Nucleic Acid No. 1903): 0.0269
p-value (NM_001659, Nucleic Acid No. 1908): 0.00749
p-value (NM_001690, Nucleic Acid No. 1917): 0.021
p-value (t-test, deflazacort vs. prednisone) (NM_002068, Nucleic Acid No. 2030): 0.00544
p-value (t-test, deflazacort vs. prednisone) (NM_002087, Nucleic Acid No. 2038): 0.0294
p-value (t-test, deflazacort vs. prednisone) (NM_002110, Nucleic Acid No. 2040): 0.0352
p-value (t-test, deflazacort vs. prednisone) (NM_002155, Nucleic Acid No. 2049): 0.0206
p-value (t-test, deflazacort vs prednisone) (NM_002199, Nucleic Acid No. 2068): 0.0118
p-value (t-test, deflazacort vs prednisone) (NM_002229, Nucleic Acid No. 2076): 0.0299
p-value (NM_003644, Nucleic Acid No. 2023): 0.00498
p-value (NM_003879, Nucleic Acid No. 1948): 0.0159
p-value (NM_004041, Nucleic Acid No. 1914): 0.0324
p-value (t-test, deflazacort vs. prednisone) (NM_004517, Nucleic Acid No. 2066): 0.0161
p-value (NM_004735, Nucleic Acid No. 2106): 0.0293

From patent US20110217715A1, “GENE EXPRESSION IN DUCHENNE MUSCULAR DYSTROPHY” (CHILDREN'S HOSPITAL MEDICAL CENTER, priority 2008, published 2011)
